In patent publication US20110039816A1, “THERAPEUTIC SUBSTANCE, PHARMACEUTICAL COMPOSITION, HELICOBACTER PYLORI GROWTH INHIBITOR AND METHOD FOR CONDUCTING ANTI-HELICOBACTER THERAPY” (priority 2007, published 2011):
Entries after “also recorded” stand apart in the source; their conditions may differ.

System: H. pylori
Experiment: Effect of comparator drugs and CGNC on the growth of H. pylori patient strains
Format: cell-based, Helicobacter pylori
Design: key to Effect on the growth of H. pylori: (+) - inhibition of growth; (−) - no inhibition of growth
Settings: for Effect on growth of H. pylori: strains 782, 785, 786, 787
Description: The effect of the following doses of CGNC was examined: 50, 100, and 300 mg/ml. Bacteriological methods were used to conduct the study. Three doses of CGNC (50, 100 and 300 mg/ml) were used for analysis of the CGNC effect on the growth of H. pylori. Serial dilutions, of dense nutrient media containing an increasing concentration of the test substance were set up. Isolates of H. pylori inoculated on standard for this type of bacteria mediums (without CGNC) were used to control the microbial growth. The effect of the test substance was compared with the effect of the placebo (sterile saline solution—0.15 M NaCl, pH 7.0-7.2). In a comparative experiment, the effect of the antimicrobials, amoxicillin (20 μg/ml) and metronidazole (80 μg/ml), were evaluated.
Metronidazole and amoxicillin, the most common used therapeutical substances in combined anti-helicobacter therapy, were chosen as comparator-drugs. H. pylori isolated from patients (No. 782, 785, 786, 787), were used to compare the effect of CGNC (300 mg/ml), amoxicillin (20 μg/ml) and metronidazole (80 μg/ml) (Table 3). These strains were isolated from patients with chronic gastroduodenitis, gastritis associated with gastric stump, duodenal ulcer and reflux esophagitis.

In the case of Cc1ncc([N+](=O)[O-])n1CCO [Metronidazole], the “Effect on growth of H. pylori” value (metronidazole 80 μg/ml) is reported as “did not have an inhibiting effect; also recorded: did not inhibit the growth”, the “Effect on the growth of H. pylori” value (strain 782 (CGD), Metronidazole 80 μg/ml) is reported as “−” and the “Effect on the growth of H. pylori” value (strain 785 (gastritis associated with gastric stump), Metronidazole 80 μg/ml) is reported as “−”. The “Effect on the growth of H. pylori” value (strain 786 (DU, reflux esophagitis), Metronidazole 80 μg/ml) was “−” and the “Effect on the growth of H. pylori” value (strain 787 (CGD), Metronidazole 80 μg/ml) was “−”.
For CC1(C)S[C@@H]2[C@H](NC(=O)[C@H](N)c3ccc(O)cc3)C(=O)N2[C@H]1C(=O)O [Amoxicillin], the “Effect on growth of H. pylori” value (amoxicillin 20 μg/ml) was “inhibited the growth; also recorded: inhibition of growth occurred”, the “Effect on the growth of H. pylori” value (strain 782 (CGD), Amoxicillin 20 μg/ml) was “+” and the “Effect on the growth of H. pylori” value (strain 785 (gastritis associated with gastric stump), Amoxicillin 20 μg/ml) was “+”. The “Effect on the growth of H. pylori” value (strain 786 (DU, reflux esophagitis), Amoxicillin 20 μg/ml) was “+” and the “Effect on the growth of H. pylori” value (strain 787 (CGD), Amoxicillin 20 μg/ml) was “+”.
